# Test results as given in patent US5506102A (priority 1993, dated 1996).
# Experiments:
# Assay type in all cases: cell-based
# [1] = system: human progesterone receptor isoform PR-B; assay: PR-B transactivation of MMTV-LUC reporter, transient transfection; conditions: 10^-7 M progesterone
# Description: The cells were then incubated with either progesterone or an inert vehicle (ethanol (ETOH)). Western immunoblot analysis using two PR specific monoclonal antibodies (B30 and AB52, available from Dean Edwards, University of Colorado) confirmed that no hPR-A was synthesized from our PR-B constructs.
# human estrogen receptor [2] = biological target: T1, human estrogen receptor (Homo sapiens, UniProt P03372); assay: ER transcriptional activity on MMTV-ERE-LUC, CV-1 cells, ER alone; conditions: 10^-7 M 17β-estradiol
# T1 construct: expressed in transfected cells; host or cells: CV-1
# T1 sequence (P03372 1-595): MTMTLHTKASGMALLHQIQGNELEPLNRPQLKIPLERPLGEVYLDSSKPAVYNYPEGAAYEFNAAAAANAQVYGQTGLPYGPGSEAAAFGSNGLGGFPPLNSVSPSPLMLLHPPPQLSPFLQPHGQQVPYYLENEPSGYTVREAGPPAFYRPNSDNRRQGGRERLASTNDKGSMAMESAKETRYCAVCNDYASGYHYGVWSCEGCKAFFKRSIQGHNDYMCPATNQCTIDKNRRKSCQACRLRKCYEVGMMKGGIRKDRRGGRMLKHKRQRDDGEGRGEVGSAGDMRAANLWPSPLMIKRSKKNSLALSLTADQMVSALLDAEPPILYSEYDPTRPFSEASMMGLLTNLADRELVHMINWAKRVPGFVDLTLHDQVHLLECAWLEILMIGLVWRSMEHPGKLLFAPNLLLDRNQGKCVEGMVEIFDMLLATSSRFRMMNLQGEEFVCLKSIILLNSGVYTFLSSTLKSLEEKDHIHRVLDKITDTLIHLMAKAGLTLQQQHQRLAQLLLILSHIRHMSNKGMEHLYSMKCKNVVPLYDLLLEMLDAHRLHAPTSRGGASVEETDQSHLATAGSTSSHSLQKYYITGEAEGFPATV
# Description: (§1) All values were normalized for transfection efficiency by simultaneous estimation of luciferase and β-galactocidase activities. The relative luciferase activity is calculated by dividing the normalized luciferase value at a given point by that obtained in the absence of transfected receptor or ligand. Data shown represent the mean +/- the average deviation from the mean of triplicate estimations.
# Experimental protocols and data calculation are as described in FIG. 11. The experiment detailed above is representative of independent assays (N>3). Data shown represent the mean +/- the average deviation from the mean of triplicate estimations.
# (§2) Vegeto et al., supra. Cells were plated into 96-well tissue culture plates. The vector DNA was introduced into the CV-1 cells using calcium phosphate coprecipitation as described herein. More specifically, 20 μg of DNA/ml of transfection buffer were used in each transfection. […] The concentration of pXVhPR-A vector chosen was determined by performing the experiment at several different concentrations of vector, and then using that concentration that was optimal for transcriptional readout. […] The Normalized LUC activity was calculated by dividing the raw luciferase (×10^4) units for each point by the β-galactosidase activity [(OD415 nm ×10^5)/time min.] at that point.
# human estrogen receptor [3] = assay: ER transcriptional activity on MMTV-ERE-LUC, CV-1 cells, ER co-expressed with PR-B; conditions: 10^-7 M 17β-estradiol, FIG. 11D
# Description: as §1
# as §2, with “transfection. Each transfection mix included 0.5 μg of pRST7hER, 9.5 μg of MMTV-ERE-LUC, 5 μg of pCH110, (which contains the gene for β-galactosidase) as an internal control and 5 μg of PGEM4 DNA as a carrier.” for “transfection.”
compound,measurement,setting,value
CC(=O)[C@H]1CC[C@H]2[C@@H]3CCC4=CC(=O)CC[C@]4(C)[C@H]3CC[C@]12C [progesterone],progesterone mediated activation of the MMTV promoter,"[1]; CV-1 cells, PR-B, FIG. 2A",permitted progesterone mediated activation of the MMTV promoter
same,activation of the MMTV promoter by PR-B,"[1]; HepG2 cells, FIG. 2C",both PR-A and PR-B functioned as efficient activators
same,direct effects on ER,human estrogen receptor [2],no direct effects on ER were observed
same,inhibition of ER function with hPR-B,human estrogen receptor [3],hPR-B will not inhibit
